Data as given in ChEMBL document CHEMBL1154773, “Thiosemicarbazones from the old to new: iron chelators that are more than just ribonucleotide reductase inhibitors” (J Med Chem, 2009).

Tests used:
MRC5 = assay: Antiproliferative activity against human MRC5 cells after 72 hrs by MTT assay; type: cell-based; details: MRC5, 72 h
SK-N-MC [1] = assay: cells; details: Homo sapiens, 72 h
Description: Antiproliferative activity against human SK-N-MC cells after 72 hrs by MTT assay

SK-N-MC [2] = assay: Antiproliferative activity against human SK-N-MC cells after 96 hrs by MTT assay; type: functional, cell-based
SK-N-MC [3] = assay: Antiproliferative activity against human SK-N-MC cells; type: functional, cell-based
[4] = Toxicity in iv dosed CD2F1 hybrid mouse assessed as maximum tolerated dose administered BID at an interval of 6 hrs for 5 days a week over 2 weeks; type: organism-based; details: in vivo
M109 [5] = assay: Antitumor activity against mouse M109 cells implanted in CD2F1 hybrid mouse assessed as reduction of tumor weight at 0.4 mg/kg, iv administered 4 days after implantation BID for 5 days measured on day 12 after implantation relative to control; type: functional; design: scale not given: the % may be the effect or the level left
SK-MEL-28 = assay: Antitumor activity against human SK-MEL-28 cells implanted in nude mouse assessed as reduction in tumor growth at 0.4 mg/kg/day measured up to 7 weeks relative to control; type: functional; design: scale not given: the % may be the effect or the level left
SK-N-MC [6] = assay: Iron chelating activity in human SK-N-MC cells assessed as cellular iron efflux at 25 uM after 3 hrs relative to control; type: functional
SK-N-MC [7] = assay: Effect on iron metabolism in human SK-N-MC cells assessed as cellular iron uptake from transferrin at 25 uM after 3 hrs in presence of pronase relative to control; type: functional
M109 [8] = assay: Antitumor activity against mouse M109 cells implanted in CD2F1 hybrid mouse assessed as reduction of tumor weight at 6 mg/kg, iv administered 4 days after implantation BID for 5 days measured on day 12 after implantation relative to control; type: functional; design: scale not given: the % may be the effect or the level left
Rattus norvegicus = assay: Iron chelating activity in rat assessed as faecal iron excretion at 25 to 100 mg/kg, po administered as single dose relative to basal level; type: functional, Feces; details: dose mg/kg 25-100
SK-N-MC [9] = assay: Antiproliferative activity against human SK-N-MC cells by MTT assay; type: functional, cell-based
CHP-126 = assay: Antitumor activity against human CHP126 cells at 60 uM after 72 hrs; type: functional
[10] = Antitumor activity against human CHP100 cells at 60 uM after 72 hrs; type: functional

NC(=S)N/N=C/c1c(O)ccc2ccccc12
IC50 (MRC5): > 25 µM | IC50 (SK-N-MC [1]): 0.5 µM

O=C(N/N=C/c1c(O)ccc2ccccc12)c1ccncc1
IC50 (SK-N-MC [2]): 1 µM | IC50 (SK-N-MC [3]): 0.3 µM | IC50 (SK-N-MC [1]): 0.3 µM

CN(C)C(=S)NN=C(c1ccccn1)c1ccccn1
MTD at 2 weeks [4]: 0.4 mg/kg | Activity (M109 [5]): 47% | Activity (SK-MEL-28): 8% | Activity (SK-N-MC [6]): 47% | Activity (SK-N-MC [7]): 9% | IC50 (SK-N-MC [1]): 0.03 µM

NC(=S)N/N=C/c1ncccc1N [TRIAPINE]
MTD at 2 weeks [4]: 6 mg/kg | Activity (M109 [8]): 10%

Cc1ncc(CO)c(/C=N/NC(=O)c2ccncc2)c1O [PYRIDOXAL ISONICOTINOYL HYDRAZONE]
fold change (FC) (Rattus norvegicus): 8

O=C(N/N=C/c1ccccn1)c1cccs1
IC50 (SK-N-MC [9]): 1 µM

CC(=O)N(O)CCCCCNC(=O)CCC(=O)N(O)CCCCCNC(=O)CCC(=O)N(O)CCCCCN [DEFEROXAMINE]
Activity (CHP-126): 80% | Activity [10]: 80% | IC50 (SK-N-MC [3]): 22 µM | IC50 (SK-N-MC [1]): 5 µM

O=C(N/N=C(\c1ccccc1)c1ccccn1)c1ccccc1
IC50 (SK-N-MC [9]): 1 µM
